Source: the supplement of paper PMC11579375

Legend:
Test in all cases: area under the viability dose-response curve (AUC) (AUC (arbitrary units, max 500 = no viability loss)); higher = less sensitive (higher viability)
Settings in all cases: exposure time: 120 h; concentration range: 0.1 nM - 10 µM, 6 doses
10F2 = test system: 10F2 (fetal-II hepatoblastoma organoid with high liver markers)
Method: (§1)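 Patient-derived hepatoblastoma tumor organoids (about 50 organoids per well, 384-well plates, medium with 5% BME) were treated with the PMC pediatric cancer drug library. Each drug was tested in duplicate at 6 concentrations (0.1 nM to 10 µM, 10-fold steps).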

135F2 = test system: 135F2 (fetal-II hepatoblastoma organoid with high liver markers)
Method: as §1

13E = test system: 13E (embryonal-type hepatoblastoma organoid)
Method: as §1

13F2 = test system: 13F2 (fetal-II hepatoblastoma organoid with high liver markers)
Method: as §1

17E = test system: 17E (embryonal-type hepatoblastoma organoid)
Method: as §1

17F1 = test system: 17F1 (fetal-I hepatoblastoma organoid with intermediate liver markers)
Method: as §1

27F1 = test system: 27F1 (fetal-I hepatoblastoma organoid with intermediate liver markers)
Method: as §1

3E = test system: 3E (embryonal-type hepatoblastoma organoid)
Method: as §1

8F1 = test system: 8F1 (fetal-I hepatoblastoma organoid with intermediate liver markers)
Method: as §1

96F1 = test system: 96F1 (fetal-I hepatoblastoma organoid with intermediate liver markers)
Method: as §1

22E = test system: 22E (embryonal-type hepatoblastoma organoid)
Method: as §1

## CNC(=O)c1cc(Oc2ccc(NC(=O)Nc3ccc(Cl)c(C(F)(F)F)c3)c(F)c2)ccn1 [Regorafenib]
10F2
  area under the viability dose-response curve: 389
135F2
  area under the viability dose-response curve: 404
13E
  area under the viability dose-response curve: 418
13F2
  area under the viability dose-response curve: 430
17E
  area under the viability dose-response curve: 456
17F1
  area under the viability dose-response curve: 428
27F1
  area under the viability dose-response curve: 447
3E
  area under the viability dose-response curve: 387
8F1
  area under the viability dose-response curve: 290
96F1
  area under the viability dose-response curve: 452

## CC(=O)Nc1cccc(-n2c(=O)n(C3CC3)c(=O)c3c(Nc4ccc(I)cc4F)n(C)c(=O)c(C)c32)c1 [Trametinib]
10F2
  area under the viability dose-response curve: 172
135F2
  area under the viability dose-response curve: 281
13E
  area under the viability dose-response curve: 396
13F2
  area under the viability dose-response curve: 214
17E
  area under the viability dose-response curve: 394
17F1
  area under the viability dose-response curve: 428
27F1
  area under the viability dose-response curve: 380
3E
  area under the viability dose-response curve: 331
8F1
  area under the viability dose-response curve: > 500
96F1
  area under the viability dose-response curve: 418

## COCc1c(-c2cc3cc(C)cc(OC)c3s2)c2c(N)ncnn2c1CN1CCNC(=O)C1 [Rogaratinib]
135F2
  area under the viability dose-response curve: 473
22E
  area under the viability dose-response curve: 440
27F1
  area under the viability dose-response curve: 475
3E
  area under the viability dose-response curve: 361
8F1
  area under the viability dose-response curve: 496
96F1
  area under the viability dose-response curve: 485

## Cn1nccc1Nc1nccc(-c2cc3c(s2)C(C)(C)N(CCN2CCOCC2)C3=O)n1 [Temuterkib]
135F2
  area under the viability dose-response curve: 409
22E
  area under the viability dose-response curve: > 500
27F1
  area under the viability dose-response curve: 440
3E
  area under the viability dose-response curve: 443
8F1
  area under the viability dose-response curve: > 500
96F1
  area under the viability dose-response curve: 484

## CNCc1ccccc1-c1csc([C@@H](C)Nc2nc(C)nc3cc(OC)c(OC)cc23)c1 [BAY-293]
135F2
  area under the viability dose-response curve: 446
27F1
  area under the viability dose-response curve: 488
3E
  area under the viability dose-response curve: 458
8F1
  area under the viability dose-response curve: > 500
96F1
  area under the viability dose-response curve: 461

## Cc1sc2c(c1C)C(c1ccc(Cl)cc1)=N[C@@H](CC(=O)NCCCN1CCN(C)CC1)c1nnc(C)n1-2 [(S)-JQ-35]
135F2
  area under the viability dose-response curve: 388
22E
  area under the viability dose-response curve: 410
27F1
  area under the viability dose-response curve: 447
3E
  area under the viability dose-response curve: 309
8F1
  area under the viability dose-response curve: 345
96F1
  area under the viability dose-response curve: 496

## Nc1cc(F)ccc1NC(=O)c1ccc(CNC(=O)/C=C/c2cccnc2)cc1 [Tucidinostat]
135F2
  area under the viability dose-response curve: 443
27F1
  area under the viability dose-response curve: 458
3E
  area under the viability dose-response curve: 432
8F1
  area under the viability dose-response curve: 472
96F1
  area under the viability dose-response curve: 474

## CC(C)(CN1C(=O)C(Cl)=C(Cl)C1=O)CN1C(=O)C(Cl)=C(Cl)C1=O
135F2
  area under the viability dose-response curve: 497
22E
  area under the viability dose-response curve: 427
27F1
  area under the viability dose-response curve: > 500
3E
  area under the viability dose-response curve: > 500
8F1
  area under the viability dose-response curve: > 500
96F1
  area under the viability dose-response curve: > 500

## N[C@@H]1CCCN(c2c(/C=C3\SC(=O)NC3=O)cccc2-c2ccccc2)C1 [AZD1208]
135F2
  area under the viability dose-response curve: 487
27F1
  area under the viability dose-response curve: 471
3E
  area under the viability dose-response curve: 430
8F1
  area under the viability dose-response curve: > 500
96F1
  area under the viability dose-response curve: > 500

## COCC1(CO)C(=O)C2CCN1CC2 (configuration not stated) [APR-246]
10F2
  area under the viability dose-response curve: > 500
135F2
  area under the viability dose-response curve: 495
13E
  area under the viability dose-response curve: > 500
13F2
  area under the viability dose-response curve: 487
17E
  area under the viability dose-response curve: 494
17F1
  area under the viability dose-response curve: 497
27F1
  area under the viability dose-response curve: 462
3E
  area under the viability dose-response curve: > 500
8F1
  area under the viability dose-response curve: 480
96F1
  area under the viability dose-response curve: 499

## O=C(O)C1(C(=O)O)CCC1.[NH2-].[NH2-].[Pt+2] [Carboplatin]
10F2
  area under the viability dose-response curve: 470
135F2
  area under the viability dose-response curve: 494
13F2
  area under the viability dose-response curve: 462
17E
  area under the viability dose-response curve: 491
17F1
  area under the viability dose-response curve: 494
22E
  area under the viability dose-response curve: > 500
27F1
  area under the viability dose-response curve: 487
3E
  area under the viability dose-response curve: 478
8F1
  area under the viability dose-response curve: 433
96F1
  area under the viability dose-response curve: 476

## CC[C@H](C)n1cc(C)c2c(C(=O)NCc3c(C)cc(C)[nH]c3=O)cc(-c3ccc(N4CCNCC4)nc3)cc21 [GSK-126]
135F2
  area under the viability dose-response curve: > 500
22E
  area under the viability dose-response curve: > 500
27F1
  area under the viability dose-response curve: 499
3E
  area under the viability dose-response curve: 458
8F1
  area under the viability dose-response curve: > 500
96F1
  area under the viability dose-response curve: > 500

## CC1(C)CCC(CN2CCN(c3ccc(C(=O)NS(=O)(=O)c4ccc(NCC5CCOCC5)c([N+](=O)[O-])c4)c(Oc4cnc5[nH]ccc5c4)c3)CC2)=C(c2ccc(Cl)cc2)C1 [Venetoclax]
10F2
  area under the viability dose-response curve: 435
135F2
  area under the viability dose-response curve: 470
13E
  area under the viability dose-response curve: 456
13F2
  area under the viability dose-response curve: 471
17E
  area under the viability dose-response curve: 465
17F1
  area under the viability dose-response curve: 468
27F1
  area under the viability dose-response curve: 464
3E
  area under the viability dose-response curve: 472
8F1
  area under the viability dose-response curve: 465
96F1
  area under the viability dose-response curve: 461

## Cc1cnc(CNC(=O)c2c(=O)c3ccc(N4CCCN(C)CC4)nc3n3c2sc2ccccc23)cn1 [Pidnarulex]
135F2
  area under the viability dose-response curve: 402
22E
  area under the viability dose-response curve: 436
27F1
  area under the viability dose-response curve: 489
3E
  area under the viability dose-response curve: 396
8F1
  area under the viability dose-response curve: 472
96F1
  area under the viability dose-response curve: 453

## Cn1cc(-c2cc3c(N4CCN(c5ncc([C@@](C)(N)c6ccc(F)cc6)cn5)CC4)ncnn3c2)cn1 [Avapritinib]
135F2
  area under the viability dose-response curve: 437
22E
  area under the viability dose-response curve: 433
27F1
  area under the viability dose-response curve: 473
3E
  area under the viability dose-response curve: 455
8F1
  area under the viability dose-response curve: 478
96F1
  area under the viability dose-response curve: 452

## O=C(Nc1ccc(Cl)c(C(F)(F)F)c1)NC1CCC(Oc2ccc(C(F)(F)F)cn2)CC1 (configuration not stated) [UC2288]
135F2
  area under the viability dose-response curve: 468
22E
  area under the viability dose-response curve: 477
27F1
  area under the viability dose-response curve: 490
3E
  area under the viability dose-response curve: 371
8F1
  area under the viability dose-response curve: 486
96F1
  area under the viability dose-response curve: 484

## CC1(N)CCN(c2cnc(-c3cccc(Cl)c3Cl)c(N)n2)CC1 [SHP099]
10F2
  area under the viability dose-response curve: 430
13E
  area under the viability dose-response curve: 500
13F2
  area under the viability dose-response curve: 479
17E
  area under the viability dose-response curve: > 500
17F1
  area under the viability dose-response curve: 483
27F1
  area under the viability dose-response curve: 464
3E
  area under the viability dose-response curve: 473
8F1
  area under the viability dose-response curve: > 500

## Cn1cc(-n2cnc3c(NCc4nc5cc(Cl)c(Cl)cc5[nH]4)nc(N4CCOCC4)nc32)cn1 [SR-4835]
135F2
  area under the viability dose-response curve: 277
22E
  area under the viability dose-response curve: 327
27F1
  area under the viability dose-response curve: 264
3E
  area under the viability dose-response curve: 196
8F1
  area under the viability dose-response curve: 292
96F1
  area under the viability dose-response curve: 279

## Cn1cnc2c(F)c(Nc3ccc(Br)cc3Cl)c(C(=O)NOCCO)cc21 [Selumetinib]
10F2
  area under the viability dose-response curve: 369
135F2
  area under the viability dose-response curve: 430
13E
  area under the viability dose-response curve: 499
13F2
  area under the viability dose-response curve: 412
17E
  area under the viability dose-response curve: > 500
17F1
  area under the viability dose-response curve: > 500
27F1
  area under the viability dose-response curve: 464
3E
  area under the viability dose-response curve: > 500
8F1
  area under the viability dose-response curve: > 500
96F1
  area under the viability dose-response curve: 491

## CCN(CC)CCNC(=O)c1c(C)[nH]c(/C=C2\C(=O)Nc3ccc(F)cc32)c1C [Sunitinib]
10F2
  area under the viability dose-response curve: 385
135F2
  area under the viability dose-response curve: 437
13E
  area under the viability dose-response curve: 463
13F2
  area under the viability dose-response curve: 419
17E
  area under the viability dose-response curve: 424
17F1
  area under the viability dose-response curve: > 500
27F1
  area under the viability dose-response curve: 498
3E
  area under the viability dose-response curve: 471
8F1
  area under the viability dose-response curve: 461
96F1
  area under the viability dose-response curve: 464
